Results from the supplement of paper PMC10331698.
± gives the standard deviation of the averaged measurements.

How the values were obtained:
Test in all cases: LOEC (log10 uM (lowest observed effect concentration))
[1] = compound: C=CC(=O)OCCC(F)(F)C(F)(F)C(F)(F)C(F)(F)F [2-(Perfluorobutyl)ethyl acrylate]
Method: (§1)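 BioMAP Diversity Plus panel in human primary cell co-cultures, 4 concentrations in duplicate blinded samples. Responses are log10 fold change versus DMSO control, processed with tcpl v2.1.0. A hit is called when responses at any concentration exceed the cutoff (the larger of 3*bmad or log10(1.2)); the lowest observed effect concentration (modl_ga, log10 uM) is reported for hits.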

[2] = compound: O=C(O)C(F)(F)C(F)(F)C(F)(F)C(F)(F)C(F)(F)C(F)(F)C(F)(F)C(F)(F)Cl [9-Chloro-perfluorononanoic acid]
Method: as §1

[3] = compound: CNS(=O)(=O)C(F)(F)C(F)(F)C(F)(F)C(F)(F)C(F)(F)C(F)(F)C(F)(F)C(F)(F)F [N-Methylperfluorooctanesulfonamide]
Method: as §1

[4] = compound: O=C(O)C(F)(F)C(F)(F)C(F)(F)C(F)(F)C(F)(F)C(F)(F)C(F)(F)C(F)(F)C(F)(F)C(F)(F)C(F)(F)C(F)(F)F [Perfluorotridecanoic acid]
Method: as §1

[5] = compound: O=C(O)C(F)(F)OC(F)(F)C(F)(F)OC(F)(F)C(F)(F)C(F)(F)C(F)(F)F [Perfluoro-3,6-dioxadecanoic acid]
Method: as §1

Azathioprine = compound: Cn1cnc([N+](=O)[O-])c1Sc1ncnc2[nH]cnc12 [Azathioprine]
Method: as §1

Perfluorooctanamidine = compound: N=C(N)C(F)(F)C(F)(F)C(F)(F)C(F)(F)C(F)(F)C(F)(F)C(F)(F)F [Perfluorooctanamidine]
Method: as §1

[6] = compound: O=C(O)C(F)(F)C(F)(F)C(F)(F)C(F)(F)C(F)(F)C(F)(F)C(F)(F)C(F)(F)C(F)(F)C(F)(F)C(F)(F)C(F)(F)C(F)(F)F [Perfluorotetradecanoic acid]
Method: as §1

[7] = compound: O=P(O)(O)CCC(F)(F)C(F)(F)C(F)(F)C(F)(F)C(F)(F)C(F)(F)C(F)(F)C(F)(F)F [((Perfluorooctyl)ethyl)phosphonic acid]
Method: as §1

[8] = compound: O=S(=O)(O)C(F)(F)C(F)(F)C(F)(F)C(F)(F)C(F)(F)C(F)(F)C(F)(F)C(F)(F)F [Perfluorooctanesulfonic acid]
Method: as §1

[9] = compound: O=S(=O)(O)C(F)(F)C(F)(F)C(F)(F)C(F)(F)C(F)(F)C(F)(F)C(F)(F)C(F)(F)F [Potassium perfluorooctanesulfonate]
Method: as §1

Test System: 3C Eselectin down
- LOEC (log10 uM) [1]: 1.78

Test System: 3C Eselectin up
- LOEC (log10 uM) [2]: 1.78

Test System: 3C HLADR down
- LOEC (log10 uM) [3]: 1.3
- LOEC (log10 uM) [2]: 1.78

Test System: 3C IL8 down
- LOEC (log10 uM) [4]: 1.22 ± 0.37

Test System: 3C MCP1 down
- LOEC (log10 uM) [2]: 1.78

Test System: 3C SRB down
- LOEC (log10 uM) [5]: 1.78
- LOEC (log10 uM) (Azathioprine): 1.48
- LOEC (log10 uM) [2]: 1.78

Test System: 3C Thrombomodulin down
- LOEC (log10 uM) [1]: 1.54 ± 0.34

Test System: 3C TissueFactor down
- LOEC (log10 uM) [1]: 1.54 ± 0.34

Test System: 3C VCAM1 down
- LOEC (log10 uM) (Perfluorooctanamidine): 1.78
- LOEC (log10 uM) [2]: 1.78
- LOEC (log10 uM) [1]: 1.54 ± 0.34

Test System: 4H Eotaxin3 down
- LOEC (log10 uM) (Perfluorooctanamidine): 1.78
- LOEC (log10 uM) [6]: 0.345 ± 0.71
- LOEC (log10 uM) [7]: 1.78

Test System: 4H SRB down
- LOEC (log10 uM) [2]: 1.78
- LOEC (log10 uM) [4]: 1.22 ± 0.37

Test System: 4H VCAM1 down
- LOEC (log10 uM) (Perfluorooctanamidine): 1.78
- LOEC (log10 uM) [6]: 0.0731 ± 0.32
- LOEC (log10 uM) (Azathioprine): 1.48
- LOEC (log10 uM) [2]: 1.78
- LOEC (log10 uM) [4]: 0.716 ± 0.34

Test System: 4H VEGFRII down
- LOEC (log10 uM) [4]: 1.48

Test System: BE3C EGFR down
- LOEC (log10 uM) [5]: 1.78
- LOEC (log10 uM) [8]: 1.3
- LOEC (log10 uM) [9]: 1.3
- LOEC (log10 uM) [2]: 1.3

Test System: BE3C HLADR down
- LOEC (log10 uM) [5]: 1.54 ± 0.34
- LOEC (log10 uM) [8]: 1.3
- LOEC (log10 uM) [9]: 1.3
- LOEC (log10 uM) [2]: 1.3

Test System: BE3C ICAM1 down
- LOEC (log10 uM) [2]: 1.78

Test System: BE3C IL1a down
- LOEC (log10 uM) [5]: 1.78
- LOEC (log10 uM) [8]: 1.78
- LOEC (log10 uM) [2]: 1.54 ± 0.34

Test System: BE3C IL8 down
- LOEC (log10 uM) [3]: 1.54 ± 0.34
- LOEC (log10 uM) [8]: 1.3
- LOEC (log10 uM) [2]: 1.54 ± 0.34

Test System: BE3C IP10 down
- LOEC (log10 uM) [5]: 1.54 ± 0.34
- LOEC (log10 uM) [8]: 1.3
- LOEC (log10 uM) [9]: 1.3
- LOEC (log10 uM) [2]: 1.3

Test System: BE3C ITAC down
- LOEC (log10 uM) [8]: 1.54 ± 0.34
- LOEC (log10 uM) [9]: 1.3
- LOEC (log10 uM) [2]: 1.3

Test System: BE3C ITAC up
- LOEC (log10 uM) [5]: 0.845

Test System: BE3C Keratin818 down
- LOEC (log10 uM) [2]: 1.78

Test System: BE3C MIG down
- LOEC (log10 uM) [8]: 1.78
- LOEC (log10 uM) [2]: 1.78

Test System: BE3C MMP1 up
- LOEC (log10 uM) [5]: 1.3
- LOEC (log10 uM) (Perfluorooctanamidine): 1.78
- LOEC (log10 uM) [9]: 0.573 ± 0.39

Test System: BE3C MMP9 down
- LOEC (log10 uM) [3]: 0.573 ± 0.39
- LOEC (log10 uM) [8]: 1.3
- LOEC (log10 uM) [9]: 1.3
- LOEC (log10 uM) [2]: 1.78

Test System: BE3C PAI1 down
- LOEC (log10 uM) [3]: 0.845
- LOEC (log10 uM) [8]: 1.3
- LOEC (log10 uM) [9]: 1.3
- LOEC (log10 uM) [2]: 1.3

Test System: BE3C SRB down
- LOEC (log10 uM) [8]: 1.3
- LOEC (log10 uM) [9]: 1.3
- LOEC (log10 uM) [2]: 1.54 ± 0.34

Test System: BE3C tPA down
- LOEC (log10 uM) [5]: 1.78
- LOEC (log10 uM) (Azathioprine): 1.22 ± 0.37
- LOEC (log10 uM) [2]: 1.78

Test System: BE3C tPA up
- LOEC (log10 uM) [7]: 1.3

Test System: BE3C uPA down
- LOEC (log10 uM) [8]: 1.78
- LOEC (log10 uM) [2]: 1.78

Test System: BE3C uPAR down
- LOEC (log10 uM) [2]: 1.78

Test System: BE3C uPAR up
- LOEC (log10 uM) [9]: 1.54 ± 0.34

Test System: BF4T Eotaxin3 down
- LOEC (log10 uM) [5]: 0.845
- LOEC (log10 uM) [2]: 0.801 ± 0.71
- LOEC (log10 uM) [7]: 1.54 ± 0.34

Test System: BF4T ICAM1 down
- LOEC (log10 uM) [2]: 1.78

Test System: BF4T IL1a down
- LOEC (log10 uM) [2]: 1.78

Test System: BF4T IL8 down
- LOEC (log10 uM) [3]: 1.78

Test System: BF4T IL8 up
- LOEC (log10 uM) [5]: 1.07 ± 0.32

Test System: BF4T Keratin818 down
- LOEC (log10 uM) [2]: 1.78

Test System: BF4T MCP1 down
- LOEC (log10 uM) [5]: 0.573 ± 0.39
- LOEC (log10 uM) [2]: 0.801 ± 0.71

Test System: BF4T MMP1 down
- LOEC (log10 uM) [2]: 1.78

Test System: BF4T MMP3 up
- LOEC (log10 uM) [5]: 1.3

Test System: BF4T MMP9 down
- LOEC (log10 uM) [2]: 1.78

Test System: BF4T PAI1 down
- LOEC (log10 uM) [2]: 1.78

Test System: BF4T SRB down
- LOEC (log10 uM) [2]: 1.78

Test System: BF4T VCAM1 down
- LOEC (log10 uM) (Azathioprine): 1.48
- LOEC (log10 uM) [2]: 1.3

Test System: BF4T tPA down
- LOEC (log10 uM) [2]: 1.3

Test System: BF4T uPA down
- LOEC (log10 uM) [2]: 1.78

Test System: BT Bcell Proliferation down
- LOEC (log10 uM) (Perfluorooctanamidine): 1.78
- LOEC (log10 uM) (Azathioprine): 1.48
- LOEC (log10 uM) [7]: 1.78
- LOEC (log10 uM) [1]: 1.78

Test System: BT Bcell Proliferation up
- LOEC (log10 uM) [2]: 1.78

Test System: BT PBMCCytotoxicity down
- LOEC (log10 uM) [1]: 1.54 ± 0.34

Test System: BT PBMCCytotoxicity up
- LOEC (log10 uM) [5]: 1.78
- LOEC (log10 uM) [2]: 1.78

Test System: BT sIgG down
- LOEC (log10 uM) (Azathioprine): -0.0458
- LOEC (log10 uM) [1]: 1.78

Test System: BT xIL2 down
- LOEC (log10 uM) (Azathioprine): 1.48
- LOEC (log10 uM) [1]: 1.78

Test System: BT xIL6 down
- LOEC (log10 uM) (Azathioprine): 1.48
- LOEC (log10 uM) [1]: 1.78

Test System: BT xIL17A down
- LOEC (log10 uM) (Azathioprine): 1.48
- LOEC (log10 uM) [1]: 1.54 ± 0.34

Test System: BT xIL17F down
- LOEC (log10 uM) (Azathioprine): 1.48
- LOEC (log10 uM) [1]: 1.3

Test System: BT xTNFa down
- LOEC (log10 uM) (Azathioprine): 0.716 ± 0.34
- LOEC (log10 uM) [1]: 1.3

Test System: CASM3C MIG down
- LOEC (log10 uM) [3]: 1.07 ± 0.32
- LOEC (log10 uM) [1]: 1.78

Test System: CASM3C Proliferation down
- LOEC (log10 uM) (Azathioprine): 1.48

Test System: CASM3C SAA up
- LOEC (log10 uM) [4]: 0.477 ± 0.68

Test System: CASM3C VCAM1 down
- LOEC (log10 uM) [3]: 0.801 ± 0.71
- LOEC (log10 uM) (Azathioprine): 1.48
- LOEC (log10 uM) [1]: 1.78
- LOEC (log10 uM) [4]: 0.954

Test System: IMphg CD40 down
- LOEC (log10 uM) [5]: 1.78
- LOEC (log10 uM) (Azathioprine): 1.48
- LOEC (log10 uM) [2]: 1.78
- LOEC (log10 uM) [4]: 1.48

Test System: IMphg CD69 down
- LOEC (log10 uM) [5]: 1.78
- LOEC (log10 uM) [2]: 1.78

Test System: IMphg ESelectin down
- LOEC (log10 uM) [3]: 0.845
- LOEC (log10 uM) (Azathioprine): 1.48

Test System: IMphg ESelectin up
- LOEC (log10 uM) [8]: 1.78
- LOEC (log10 uM) [9]: 1.78
- LOEC (log10 uM) [7]: 1.78

Test System: IMphg IL1a up
- LOEC (log10 uM) [3]: 1.54 ± 0.34

Test System: IMphg MCP1 down
- LOEC (log10 uM) [2]: 1.78

Test System: IMphg MCSF down
- LOEC (log10 uM) (Azathioprine): 1.48
